Data from patent publication US12357644B2, “Acetyl salicylic acid composition for intravenous administration, its storage, production and use” (HYLORIS DEVELOPMENTS SA, priority 2022, dated 2025).
Converted amounts (≈) assume the structure as drawn. “And” between values parts separate entries of the source, which are not always exact repeats. Identical values can stand only once. Like-named read-outs stand apart in the source and are kept apart here.

How the values were obtained:
Assay type in all cases: physicochemical
[1] = Saturated solubility of ASA after 1 hour shaking in a medium selection; conditions: for solubility thermodynamic at 1 h: thermodynamic from solid, read-out: Individual concentration at saturation (Cs), Aspirin (A)
Method: Prior to spray drying experiments, the solution pH of different solvents and the saturation solubility of ASA in different solvents was screened. The acidified mediums were prepared as follows:
8.5 ml of hydrochloric acid (about 35% v/v) was transferred into 900 ml of water and diluted to 1000 ml with water. 10.0 ml of this solution was diluted to 1000 ml with water. The pH of the solution was noted.
8.5 ml of hydrochloric acid (about 35% v/v) was transferred into 900 mL 96% ethanol and diluted to 1000 ml with water. 10.0 ml of this solution was diluted to 1000 ml with 96% ethanol. The pH of the solution was noted.
8.5 ml of hydrochloric acid (about 35% v/v) was transferred into 900 mL Tertiary butyl alcohol and diluted to 1000 ml with Tertiary butyl alcohol. 10.0 ml of this solution was diluted to 1000 ml with 96% Tertiary butyl alcohol. The pH of the solution was noted.
8.5 ml of hydrochloric acid (about 35% v/v) was transferred into 900 ml water and diluted to 1000 ml with water. 10.0 ml of this solution was diluted to 1000 ml with water. […] The pH of the solution was noted.
ASA has more solubility in non-aqueous media compared to aqueous media and ASA dissolves better in ethanol compared to tertiary butyl alcohol however it also has higher salicylic acid content (Tables 6 and 7). Once it is acidified the salicylic acid levels are lowered.

[2] = Reconstitution testing of ASA in buffer diluents; conditions: gamma irradiated ASA
Method: The material produced in the radiation and spray drying experiments was tested in reconstitution studies and compared to non-sterile, crystalline acetyl salicylic acid.
The buffer systems were tested for reconstitution of 325.0 mg gamma irradiated acetyl salicylic acid powder in 5 or 10 ml reconstitution fluid. Different buffer strengths were screened. […]

[3] = Assay and purity by HPLC on non-irradiated and gamma-irradiated ASA powder; conditions: after gamma irradiation
Method: The packaged ASA was end-sterilized by 25 or 55 kGy using a Cobalt60 irradiation source. Inside the installation, samples are placed on a turn table which is turned a quarter to expose each sample from each side at equal amounts of irradiation. For each 1 kGy, the sample is irradiated for 10 min.
After gamma-irradiation, the samples were again analysed for sterility according to Ph. Eur. 2.6.1., which is harmonized with USP 71. Potential degradation was monitored by determining assay and purity by HPLC.
Salicylic acid levels were less than 0.05%.

[4] = buffer —, purified water Ad 10 g, 10 mL

CC(=O)Oc1ccccc1C(=O)O [ASA, Acetyl salicylic acid]
solubility thermodynamic at 1 h ([1]; 60 g/L mannitol solution, saline or isotonic, 60 g/L mannitol, without pH adjustment): 3090 µg/mL (≈ 17.2 mM) | Individual concentration at saturation (Cs), Aspirin (A) ([1]; 60 g/L mannitol, without pH adjustment): 2.868 mg/mL and 2.484 mg/mL | Cs (mean) ([1]; Acidified 60 g/L mannitol): 1.787 mg/mL | Cs (mean) ([1]; Acidified ethanol): 142.678 mg/mL | Individual concentration at saturation (Cs), Aspirin (A) ([1]; Acidified ethanol): 143.526 mg/mL and 142.299 mg/mL and 141.593 mg/mL | Individual concentration at saturation (Cs), Aspirin (A) ([1]; Acidified tert-butyl alcohol): 48.73 mg/mL and 48.156 mg/mL and 48.453 mg/mL | Individual concentration at saturation (Cs), Aspirin (A) ([1]; Acidified water): 1.924 mg/mL and 1.912 mg/mL | Individual concentration at saturation (Cs), Aspirin (A) ([1]; Ethanol, without pH adjustment): 158.430 mg/mL and 163.027 mg/mL and 160.432 mg/mL | Individual concentration at saturation (Cs), Aspirin (A) ([1]; Tert-butyl alcohol, without pH adjustment): 22.768 mg/mL and 23.150 mg/mL and 22.889 mg/mL | Individual concentration at saturation (Cs), Aspirin (A) ([1]; Water, without pH adjustment): 3.429 mg/mL and 3.423 mg/mL | solubility thermodynamic at 1 h ([1]; acidified 60 g/L mannitol solution, saline or isotonic, Acidified 60 g/L mannitol): 1780 µg/mL (≈ 9.85 mM) | solubility thermodynamic at 1 h ([1]; acidified water, aqueous buffer, Acidified water): 1890 µg/mL (≈ 10.5 mM) | solubility thermodynamic at 1 h ([1]; water, Water, without pH adjustment): 3090 µg/mL (≈ 17.2 mM) | pH after reconstitution ([2]; Carbonate - NaOH 0.15M): 6.254 | 325 mg ASA dissolves? ([2]; Carbonate - NaOH 0.2M, 10 mL): YES - | pH after reconstitution ([2]; Carbonate - NaOH 0.2M, 10 mL): 9.160 | 325 mg ASA dissolves? ([2]; Carbonate - NaOH 0.25, 10 mL): YES - | pH after reconstitution ([2]; Carbonate - NaOH 0.25, 10 mL): 9.646 | Time needed to dissolve (±) ([2]; Carbonate - NaOH 0.25, 10 mL, (3 min) + <1 min): <1 min | 325 mg ASA dissolves? ([2]; Carbonate - NaOH 0.5M, 5 mL): YES - | Time needed to dissolve (±) ([2]; Carbonate - NaOH 0.5M, 5 mL): 3 min | pH after reconstitution ([2]; Carbonate - NaOH 0.5M, 5 mL): 7.534 | 325 mg ASA dissolves? ([2]; Carbonate - NaOH 1M, 5 mL): YES - | Time needed to dissolve (±) ([2]; Carbonate - NaOH 1M, 5 mL): <3 min | pH after reconstitution ([2]; Carbonate - NaOH 1M, 5 mL): 9.308 | 325 mg ASA dissolves? If yes, in 5 or 10 mL? ([2]; Carbonate-NaOH 0.025M, Ad 10 g): YES - 5 mL | Time needed to dissolve (±) ([2]; Carbonate-NaOH 0.025M, 5 mL): 0.5 min | pH after reconstitution ([2]; Carbonate-NaOH 0.025M, 5 mL): 9.233 | pH after reconstitution ([2]; NaOH 0.1M): 4.199 | 325 mg ASA dissolves? If yes, in 5 or 10 mL? ([2]; NaOH 0.25M): YES - 10 mL | pH after reconstitution ([2]; NaOH 0.25M, 10 mL): 7.099 | Time needed to dissolve (±) ([2]; NaOH 0.25M, 10 mL, (3 min) + <1 min): <1 min | 325 mg ASA dissolves? If yes, in 5 or 10 mL? ([2]; NaOH 0.3M): YES - 10 mL | Time needed to dissolve (±) ([2]; NaOH 0.3M, 10 mL, printed as (3 min) + 1 min): 1 min | 325 mg ASA dissolves? If yes, in 5 or 10 mL? ([2]; NaOH 0.4M): YES - 10 mL | pH after reconstitution ([2]; NaOH 0.4M, 10 mL): 12.103 | Time needed to dissolve (±) ([2]; NaOH 0.4M, 10 mL, (3 min) + <1 min): <1 min | 325 mg ASA dissolves? If yes, in 5 or 10 mL? ([2]; NaOH 0.5M): YES - 5 mL | Time needed to dissolve (±) ([2]; NaOH 0.5M, 5 mL): <1 min | pH after reconstitution ([2]; NaOH 0.5M, 5 mL): 7.229 | 325 mg ASA dissolves? If yes, in 5 or 10 mL? ([2]; NaOH 1M): YES - 5 mL | Time needed to dissolve (±) ([2]; NaOH 1M, 5 mL): <0.25 min | pH after reconstitution ([2]; NaOH 1M, 5 mL): 12.814 | 325 mg ASA dissolves? ([2]; TBST 1M, pH of medium 7.574, 10 mL): YES - | Time needed to dissolve (±) ([2]; TBST 1M, 10 mL): 15 min | pH after reconstitution ([2]; TBST 1M, 10 mL): 7.100 | Time needed to dissolve (±) ([2]; Tris 0.025M, Ad 10 g, volume as in the dissolves column of the same line): <1 min and 2 min | pH after reconstitution ([2]; Tris 0.1M): 4.195 | 325 mg ASA dissolves? ([2]; Tris 0.25M, pH of medium 10.701, 10 mL): YES - | pH after reconstitution ([2]; Tris 0.25M, 10 mL): 7.616 | 325 mg ASA dissolves? ([2]; Tris 0.5M, pH of medium 10.814, 5 mL): YES - | Time needed to dissolve (±) ([2]; Tris 0.5M, 5 mL): 3 min | pH after reconstitution ([2]; Tris 0.5M, 5 mL): 7.592 | 325 mg ASA dissolves? ([2]; Tris 1M, pH of medium 11.047, 5 mL): YES - | Time needed to dissolve (±) ([2]; Tris 1M, 5 mL): 3 min | pH after reconstitution ([2]; Tris 1M, 5 mL): 8.550 | 325 mg ASA dissolves? If yes, in 5 or 10 mL? ([2]; buffer — , strength —, purified water Ad 10 g): Yes - 10 mL | Time needed to dissolve (±) [2, 4]: 30 min | pH after reconstitution [2, 4]: 8.125 | Salicylic acid levels [3]: less than 0.05% | impurities identified [3]: no impurities were identified
